Test results published in publication PMC6680918, “New Butenolides and Cyclopentenones from Saline Soil-Derived Fungus Aspergillus Sclerotiorum” (Molecules, 2019).
In brackets after ≈: the same amount, converted by molar mass.

Tests used:
[1] = test system: Candida albicans (ATCC 10231); experiment: Antimicrobial assay, broth microdilution, C. albicans; format: cell-based; parameters: key to MIC C. albicans: -: no activity; conditions: MIC = 80% growth inhibition, tested 400 to 0.39 µg/mL; for MIC C. albicans: 24 h at 37 °C; for MIC: Candida albicans, ATCC10231, 24 h at 37 °C
Experimental: (§1) Meanwhile, the antimicrobial assays of compounds 1–9 were screened against Staphylococcus aureus (ATCC 25923), Escherichia coli (ATCC 25922) and Candida albicans (ATCC 10231).
(§2) The antimicrobial assays against S. aureus, E. coli and C. albicans were carried out by the broth microdilution method. The tested organisms were incubated overnight with shaking (200 rpm) in thermostatic oscillation incubator (37 °C) in Mueller Hinton broth (MHB) and liquid Sabourand medium for the bacteria and the fungus, respectively. The microbial inoculum density was adjusted to 1 × 10^6 cfu/mL with 0.9% saline solution by comparison with a MacFarland standard. The tested substances and positive drugs were dissolved in methanol to an initial concentration of 40 mg/mL. 4 μL of initial compound solution and 196 μL of MHB (liquid Sabourand medium for fungus) were added into the first well and mixed evenly. Then 100 μL of solution from the first hole, along with 2 μL of methanol and 98 μL of MHB (liquid Sabourand medium for fungus), were transferred to the second hole, and then shaken up as mixture uniform. The repetitive operation was performed to the eleventh one, from which 100 μL of solution well was discarded. Then, 100 μL of microbial suspension was added to the solutions in 96-well to achieve a final volume of 200 µL and final sample concentrations from 400 to 0.39 µg/mL. The blank well was also incubated with only medium under the same conditions. All experiments were carried out in triplicate and with chloramphenicol and ketoconazole as the positive controls. Optical density measurement for bacteria and fungus was recorded at 620 nm after incubation at 37 °C for 12 and 24 h, respectively. The minimal inhibitory concentration (MIC) was defined as the concentration at which the growth was inhibited 80% of the tested microorganisms.

[2] = test system: Staphylococcus aureus (ATCC 25923); experiment: Antimicrobial assay, broth microdilution, S. aureus; format: cell-based; parameters: key to MIC S. aureus: -: no activity; conditions: MIC = 80% growth inhibition, tested 400 to 0.39 µg/mL; for MIC: Staphylococcus aureus, ATCC25923, 12 h at 37 °C
Experimental: as §1, §2

[3] = test system: Escherichia coli (ATCC 25922); experiment: Antimicrobial assay, broth microdilution, E. coli; format: cell-based; parameters: key to MIC E. coli: -: no activity; conditions: MIC = 80% growth inhibition, tested 400 to 0.39 µg/mL; for MIC: Escherichia coli, ATCC25922, 12 h at 37 °C; for MIC E. coli: 12 h at 37 °C
Experimental: as §1, §2

[4] = test system: human lung adenocarcinoma (A549) cell line; experiment: Cytotoxicity by the MTT method, A549; conditions: A549, read-out: IC50 cytotoxicity against A549
Experimental: (§3) The cytotoxic activity against HL60, A549 and HL-7702 cell lines was performed by the MTT method as previously described.

in vitro = conditions: human
Experimental: as §3

[5] = test system: human promyelocytic leukemia (HL60) cell line; experiment: cells; conditions: HL-60, read-out: IC50 cytotoxicity against HL60
Experimental: as §3

For COC1=CC(=O)OC12Oc1cc(O)cc(C)c1CC2C (racemic) [Compound 4, (±)-Aspersclerolide D], the “MIC C. albicans” value [1] was “-”, the MIC [2] was greater than 400 mg/L and the MIC [3] was greater than 400 mg/L.

In the case of COC1=CC(=O)OC1(O)C(C)CO (stereo not drawn) [Compound 6, 6-hydroxyl dihydropenicillic acid], the “MIC C. albicans” value [1] is reported as “-”, the MIC [2] is reported as greater than 400 mg/L and the “MIC E. coli” value [3] is reported as “-”.

In the case of COC1=CC(=O)C(C)C1O (racemic) [Compound 5, (±)-4-hydroxy-3-methoxy-5-methyl-2-cyclopentenone], the “MIC C. albicans” value [1] is reported as “-”, the “MIC S. aureus” value ([2]; 12 h at 37 °C) is reported as “-” and the “MIC E. coli” value [3] is reported as “-”.

In the case of COC1=CC(=O)OC1(O)C(C)C (stereo not drawn) [Compound 9, dihydropenicillic acid], the “MIC C. albicans” value [1] is reported as “-”, the MIC [2] is reported as greater than 400 mg/L and the “MIC E. coli” value [3] is reported as “-”.

For COC1=CC(=O)OC1(O)C(C)Cc1c(C)cc(O)cc1O (stereo not drawn) [Compound 3, Aspersclerolide C], the IC50 [4] was 16.7 µM, the “MIC C. albicans” value [1] was “-” and the IC50 (in vitro) was 22.8 µM. It also gave an IC50 [5] of 12.1 µM, an MIC [2] of 200 mg/L (≈ 680 µM) and an MIC [3] of 200 mg/L (≈ 680 µM).

In the case of CC(=O)C1(O)OC(=O)C=C1C (stereo not drawn) [Compound 1, Aspersclerolide A], the IC50 [4] is reported as 8.9 µM, the “MIC C. albicans” value [1] is reported as “-” and the IC50 (in vitro) is reported as 17.6 µM. The IC50 [5] was 6.5 µM, the MIC [2] was greater than 400 mg/L and the MIC [3] was greater than 400 mg/L.

Molecule C=C(C)C1(O)OC(=O)C=C1OC (stereo not drawn) [Compound 8, penicillic acid] has an MIC [1] of 50 mg/L (≈ 294 µM), an MIC [2] of 6.25 mg/L (≈ 36.7 µM) and an MIC [3] of 12.5 mg/L (≈ 73.5 µM).

COc1cccc2c1C(=O)c1c(O)c3c(c(O)c1C2=O)C[C@@](O)(C(=O)CO)C[C@@H]3O[C@H]1C[C@H](N)[C@H](O)[C@H](C)O1 [doxorubicin, reference compound] gave an IC50 [4] of 1.5 µM, an IC50 (in vitro; HL-7702 cells (human normal liver, non-cancer)) of 8.3 µM and an IC50 [5] of 0.85 µM.

Work on O=C(N[C@H](CO)[C@H](O)c1ccc([N+](=O)[O-])cc1)C(Cl)Cl [chloramphenicol, reference compound] yielded an MIC [2] of 3.12 mg/L (≈ 9.66 µM) and an MIC [3] of 6.25 mg/L (≈ 19.3 µM).

In the case of C=C(OC)C1(O)OC(=O)C=C1C (stereo not drawn) [Compound 7, spersclerotioron G], the “MIC C. albicans” value [1] is reported as “-”, the MIC [2] is reported as greater than 400 mg/L and the “MIC E. coli” value [3] is reported as “-”.

CC(=O)N1CCN(c2ccc(OCC3COC(Cn4ccnc4)(c4ccc(Cl)cc4Cl)O3)cc2)CC1 (stereo not drawn) [ketoconazole, reference compound] showed an MIC [1] of 6.25 mg/L (≈ 11.8 µM).

In the case of COC(CO)C1(O)OC(=O)C=C1C (stereo not drawn) [Compound 2, Aspersclerolide B], the “MIC C. albicans” value [1] is reported as “-”, the MIC [2] is reported as 200 mg/L (≈ 1060 µM) and the MIC [3] is reported as 200 mg/L (≈ 1060 µM).
